Results published in patent US20060008512A1, “Composition and methods for improved animal performance” (priority 2004, published 2006).
Where two headings read alike, the source gives them in different places.

How the values were obtained:
[1] = tested on: Hy-Line W-36 White Leghorn hens; conditions: for Egg Shell, % (washed, dried): 6 & 10 d rooms combined; for Whole egg weight (mean±SEM): 4 day period after start of test diets
Description: Experiment 2. […] The photoperiod was 17 hours of light per day (0330 hours to 2030 hours).
The objective was to use T4 to humanely induce molting in hens that are continuously provided with ad libitum access to palatable feed meeting or exceeding all National Research Council (1994) standards. Developing a fully efficacious yet affordable molting protocol was predicated on determining the minimum effective level for T4 supplementation. Factors that potentially may affect the required level of T4 supplementation include: (1) uncertainty regarding the efficiency of T4 absorption by the gastrointestinal tract, (2) the possibility that continuous dietary ingestion of T4 could trigger substantially different biological responses when compared single daily injections, and (3) the likelihood that daily T4 intake would diminish in parallel with molt-related reductions in feed intake associated with cessation in egg production. A spontaneous and voluntary loss of appetite (anorexia) commonly accompanies seasonal molting and broodiness in a variety of avian species (Berry, 2003; Webster, 2003). Accordingly, the responses of hens to diets containing 10, 20, and 40 mg T4/kg, to bracket the anticipated range of T4 needed to cause an effective molt, were determined.

[2] = tested on: 66-week-old caged laying hens; conditions: cited from earlier work
[3] = 10 mg/kg of feed 6 d from day 5, Day 7
[4] = 10 mg/kg of feed 6 d from day 5, Day 10
[5] = 10 mg/kg of feed 6 d from day 5, Day 14
[6] = 10 mg/kg of feed 6 d from day 5, Day 30
[7] = 10 mg/kg of feed 10 d from day 5, Day 7
[8] = 10 mg/kg of feed 10 d from day 5, Day 10
[9] = 10 mg/kg of feed 10 d from day 5, Day 14
[10] = 10 mg/kg of feed 10 d from day 5, Day 30
[11] = 20 mg/kg of feed 6 d from day 5, Day 7
[12] = 20 mg/kg of feed 6 d from day 5, Day 10
[13] = 20 mg/kg of feed 6 d from day 5, Day 14
[14] = 20 mg/kg of feed 6 d from day 5, Day 30
[15] = 20 mg/kg of feed 10 d from day 5, Day 7
[16] = 20 mg/kg of feed 10 d from day 5, Day 10
[17] = 20 mg/kg of feed 10 d from day 5, Day 14
[18] = 20 mg/kg of feed 10 d from day 5, Day 30
[19] = 40 mg/kg of feed 6 d from day 5, Day 7
[20] = 40 mg/kg of feed 6 d from day 5, Day 10
[21] = 40 mg/kg of feed 6 d from day 5, Day 14
[22] = 40 mg/kg of feed 6 d from day 5, Day 30
[23] = 40 mg/kg of feed 10 d from day 5, Day 7
[24] = 40 mg/kg of feed 10 d from day 5, Day 10
[25] = 40 mg/kg of feed 10 d from day 5, Day 14
[26] = 40 mg/kg of feed 10 d from day 5, Day 30

N[C@@H](Cc1cc(I)c(Oc2cc(I)c(O)c(I)c2)c(I)c1)C(=O)O [L-thyroxine, 3,5,3′,5′-tetraiodo-L-thyronine]
Onset of molt after T4 feeding was initiated ([1]; 10 mg T4/kg, 10 days on test diets, half of the hens): 11 days
Body weight (BW) ([1]; 10 mg/kg of feed 6 d from day 5, Day 1): 1501 g
Body weight (BW) [1, 3]: 1377 g
Body weight change from day 1 (% BWC) [1, 3]: −8.3%
Body weight (BW) [1, 4]: 1293 g
Body weight change from day 1 (% BWC) [1, 4]: −13.9%
Body weight (BW) [1, 5]: 1424 g
Body weight change from day 1 (% BWC) [1, 5]: −5.1%
Body weight (BW) [1, 6]: 1483 g
Body weight change from day 1 (% BWC) [1, 6]: −1.2%
Hen-day egg production ([1]; 10 mg/kg of feed 6 d from day 5, day 4): 75%
Hen-day egg production ([1]; 10 mg/kg of feed 6 d from day 5, day 6): 58%
Hen-day egg production ([1]; 10 mg/kg of feed 6 d from day 5, day 8): 25%
Hen-day egg production ([1]; 10 mg/kg of feed 6 d from day 5, day 10): 8%
Hen-day egg production ([1]; 10 mg/kg of feed 6 d from day 5, day 12): 17%
Hen-day egg production ([1]; 10 mg/kg of feed 6 d from day 5, day 14): 0%
Hen-day egg production ([1]; 10 mg/kg of feed 6 d from day 5, day 16): 33%
Hen-day egg production ([1]; 10 mg/kg of feed 6 d from day 5, day 18): 25%
Hen-day egg production ([1]; 10 mg/kg of feed 6 d from day 5, day 20): 58%
Hen-day egg production ([1]; 10 mg/kg of feed 6 d from day 5, day 22): 75%
Hen-day egg production ([1]; 10 mg/kg of feed 6 d from day 5, day 24): 83%
Hen-day egg production ([1]; 10 mg/kg of feed 6 d from day 5, day 26): 42%
Hen-day egg production ([1]; 10 mg/kg of feed 6 d from day 5, day 28): 83%
Hen-day egg production ([1]; 10 mg/kg of feed 6 d from day 5, day 30): 75%
Body weight (BW) ([1]; 10 mg/kg of feed 10 d from day 5, Day 1): 1477 g
Body weight (BW) [1, 7]: 1372 g
Body weight change from day 1 (% BWC) [1, 7]: −7.1%
Body weight (BW) [1, 8]: 1335 g
Body weight change from day 1 (% BWC) [1, 8]: −9.6%
Body weight (BW) [1, 9]: 1314 g
Body weight change from day 1 (% BWC) [1, 9]: −11.0%
Body weight (BW) [1, 10]: 1400 g
Body weight change from day 1 (% BWC) [1, 10]: −5.2%
Hen-day egg production ([1]; 10 mg/kg of feed 10 d from day 5, day 4): 58%
Hen-day egg production ([1]; 10 mg/kg of feed 10 d from day 5, day 6): 50%
Hen-day egg production ([1]; 10 mg/kg of feed 10 d from day 5, day 8): 42%
Hen-day egg production ([1]; 10 mg/kg of feed 10 d from day 5, day 10): 17%
Hen-day egg production ([1]; 10 mg/kg of feed 10 d from day 5, day 12): 17%
Hen-day egg production ([1]; 10 mg/kg of feed 10 d from day 5, day 14): 17%
Hen-day egg production ([1]; 10 mg/kg of feed 10 d from day 5, day 16): 17%
Hen-day egg production ([1]; 10 mg/kg of feed 10 d from day 5, day 18): 25%
Hen-day egg production ([1]; 10 mg/kg of feed 10 d from day 5, day 22): 33%
Hen-day egg production ([1]; 10 mg/kg of feed 10 d from day 5, day 24): 50%
Hen-day egg production ([1]; 10 mg/kg of feed 10 d from day 5, day 26): 25%
Hen-day egg production ([1]; 10 mg/kg of feed 10 d from day 5, day 28): 25%
Hen-day egg production ([1]; 10 mg/kg of feed 10 d from day 5, day 30): 33%
Egg Shell, % (washed, dried) ([1]; 10 mg/kg of feed, Days 2 to 4): 7.93 (n = 6) %
Egg Shell, % (washed, dried) ([1]; 10 mg/kg of feed, Days 5 to 6): 7.39 (n = 9) %
Egg Shell, % (washed, dried) ([1]; 10 mg/kg of feed, Days 7 to 8): 6.63 (n = 8) %
Body weight (BW) ([1]; 20 mg/kg of feed 6 d from day 5, Day 1): 1582 g
Body weight (BW) [1, 11]: 1434 g
Body weight change from day 1 (% BWC) [1, 11]: −9.4%
Body weight (BW) [1, 12]: 1373 g
Body weight change from day 1 (% BWC) [1, 12]: −13.2%
Body weight (BW) [1, 13]: 1491 g
Body weight change from day 1 (% BWC) [1, 13]: −3.9%
Body weight (BW) [1, 14]: 1521 g
Body weight change from day 1 (% BWC) [1, 14]: −3.9%
Hen-day egg production ([1]; 20 mg/kg of feed 6 d from day 5, day 4): 94%
Hen-day egg production ([1]; 20 mg/kg of feed 6 d from day 5, day 6): 69%
Hen-day egg production ([1]; 20 mg/kg of feed 6 d from day 5, day 8): 17%
Hen-day egg production ([1]; 20 mg/kg of feed 6 d from day 5, day 10): 0%
Hen-day egg production ([1]; 20 mg/kg of feed 6 d from day 5, day 12): 17%
Hen-day egg production ([1]; 20 mg/kg of feed 6 d from day 5, day 14): 14%
Hen-day egg production ([1]; 20 mg/kg of feed 6 d from day 5, day 16): 33%
Hen-day egg production ([1]; 20 mg/kg of feed 6 d from day 5, day 18): 39%
Hen-day egg production ([1]; 20 mg/kg of feed 6 d from day 5, day 20): 47%
Hen-day egg production ([1]; 20 mg/kg of feed 6 d from day 5, day 22): 64%
Hen-day egg production ([1]; 20 mg/kg of feed 6 d from day 5, day 24): 64%
Hen-day egg production ([1]; 20 mg/kg of feed 6 d from day 5, day 26): 78%
Hen-day egg production ([1]; 20 mg/kg of feed 6 d from day 5, day 28): 89%
Hen-day egg production ([1]; 20 mg/kg of feed 6 d from day 5, day 30): 61%
Body weight (BW) ([1]; 20 mg/kg of feed 10 d from day 5, Day 1): 1680 g
Body weight (BW) [1, 15]: 1533 g
Body weight change from day 1 (% BWC) [1, 15]: −8.8%
Body weight (BW) [1, 16]: 1431 g
Body weight change from day 1 (% BWC) [1, 16]: −14.8%
Body weight (BW) [1, 17]: 1373 g
Body weight change from day 1 (% BWC) [1, 17]: −18.3%
Body weight (BW) [1, 18]: 1448 g
Body weight change from day 1 (% BWC) [1, 18]: −13.8%
Egg Shell, % (washed, dried) ([1]; 20 mg/kg of feed, Days 2 to 4): 8.38 (n = 10) %
Egg Shell, % (washed, dried) ([1]; 20 mg/kg of feed, Days 5 to 6): 8.08 (n = 13) %
Egg Shell, % (washed, dried) ([1]; 20 mg/kg of feed, Days 7 to 8): 5.56 (n = 2) %
Egg production ([1]; 40 mg T4/kg diet for 10 days): cease completely
Body weight (BW) ([1]; 40 mg/kg of feed 6 d from day 5, Day 1): 1629 g
Body weight (BW) [1, 19]: 1443 g
Body weight change from day 1 (% BWC) [1, 19]: −11.4%
Body weight (BW) [1, 20]: 1350 g
Body weight change from day 1 (% BWC) [1, 20]: −17.1%
Body weight (BW) [1, 21]: 1396 g
Body weight change from day 1 (% BWC) [1, 21]: −14.3%
Body weight (BW) [1, 22]: 1481 g
Body weight change from day 1 (% BWC) [1, 22]: −9.1%
Hen-day egg production ([1]; 40 mg/kg of feed 6 d from day 5, day 4): 67%
Hen-day egg production ([1]; 40 mg/kg of feed 6 d from day 5, day 6): 42%
Hen-day egg production ([1]; 40 mg/kg of feed 6 d from day 5, day 8): 8%
Hen-day egg production ([1]; 40 mg/kg of feed 6 d from day 5, day 10): 0%
Hen-day egg production ([1]; 40 mg/kg of feed 6 d from day 5, day 12): 0%
Hen-day egg production ([1]; 40 mg/kg of feed 6 d from day 5, day 14): 0%
Hen-day egg production ([1]; 40 mg/kg of feed 6 d from day 5, day 16): 0%
Hen-day egg production ([1]; 40 mg/kg of feed 6 d from day 5, day 18): 8%
Hen-day egg production ([1]; 40 mg/kg of feed 6 d from day 5, day 20): 25%
Hen-day egg production ([1]; 40 mg/kg of feed 6 d from day 5, day 22): 25%
Hen-day egg production ([1]; 40 mg/kg of feed 6 d from day 5, day 24): 50%
Hen-day egg production ([1]; 40 mg/kg of feed 6 d from day 5, day 26): 17%
Hen-day egg production ([1]; 40 mg/kg of feed 6 d from day 5, day 28): 33%
Hen-day egg production ([1]; 40 mg/kg of feed 6 d from day 5, day 30): 33%
Body weight (BW) ([1]; 40 mg/kg of feed 10 d from day 5, Day 1): 1572 g
Body weight (BW) [1, 23]: 1392 g
Body weight change from day 1 (% BWC) [1, 23]: −11.5%
Body weight (BW) [1, 24]: 1309 g
Body weight change from day 1 (% BWC) [1, 24]: −16.7%
Body weight (BW) [1, 25]: 1245 g
Body weight change from day 1 (% BWC) [1, 25]: −20.8%
Body weight (BW) [1, 26]: 1322 g
Body weight change from day 1 (% BWC) [1, 26]: −15.9%
Egg Shell, % (washed, dried) ([1]; 40 mg/kg of feed, Days 2 to 4): 8.34 (n = 6) %
Egg Shell, % (washed, dried) ([1]; 40 mg/kg of feed, Days 5 to 6): 7.82 (n = 6) %
Egg Shell, % (washed, dried) ([1]; 40 mg/kg of feed, Days 7 to 8): 6.63 (n = 3) %
Mortality ([1]; 10, 20, 40 mg T4/kg diets, 6 or 10 days): No mortal-ity occurred
Whole egg weight (mean±SEM) ([1]; 10 ppm T4): 62 ± 2 g
Time to reduced egg production ([1]; 20 and 40 mg T4/kg feed): ≤ 4 days
Whole egg weight (mean±SEM) ([1]; 20 ppm T4): 65 ± 2 g
Whole egg weight (mean±SEM) ([1]; 40 ppm T4): 65 ± 3 g
Size of regressed reproductive tracts at necropsy ([1]; hens that had entirely ceased egg production after the test diets): ≤ 50 % normal size
Days to target body weight (30% loss) ([2]; 1-day fast or no fast followed by corn diet with or without thyroxine): 28 days
Days to target body weight (30% loss) ([2]; 1-day feed withdrawal, then grape pomace diet plus 10 mg thyroxine/kg): 16 days
Egg production from 66 to 98 weeks ([2]; grape pomace diet plus thyroxine): 64.7%
